In PubChem BioAssay (NCI):
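Five concentrations, 48 hours, 96-well plates. Definition used: TGI = concentration required for complete inhibition of growth.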

Columns and labels:
Assay in all cases: NCI tumour cell line growth inhibition, 48 h
HT29 colon = tested on: HT29 colon
T-47D breast = tested on: T-47D breast
UACC-62 melanoma = tested on: UACC-62 melanoma
LOX IMVI melanoma = tested on: LOX IMVI melanoma
EKVX NSCLC = tested on: EKVX NSCLC
IGROV1 ovarian = tested on: IGROV1 ovarian
SR leukemia = tested on: SR leukemia
NCI-H23 lung = tested on: NCI-H23 lung
MOLT-4 leukemia = tested on: MOLT-4 leukemia
HCT-116 colon = tested on: HCT-116 colon
TK-10 renal = tested on: TK-10 renal
OVCAR-8 ovarian = tested on: OVCAR-8 ovarian
NCI-H460 lung = tested on: NCI-H460 lung
UACC-257 melanoma = tested on: UACC-257 melanoma
HS 578T breast = tested on: HS 578T breast
A549 NSCLC = tested on: A549 NSCLC
NCI/ADR-RES ovarian = tested on: NCI/ADR-RES ovarian
SF-268 CNS = tested on: SF-268 CNS
HOP-92 NSCLC = tested on: HOP-92 NSCLC
DMS 273 small cell lung = tested on: DMS 273 small cell lung

SMILES | TGI (HT29 colon) | TGI (T-47D breast) | TGI (UACC-62 melanoma) | TGI (LOX IMVI melanoma) | TGI (EKVX NSCLC) | TGI (IGROV1 ovarian) | TGI (SR leukemia) | TGI (NCI-H23 lung) | TGI (MOLT-4 leukemia) | TGI (HCT-116 colon) | TGI (TK-10 renal) | TGI (OVCAR-8 ovarian) | TGI (NCI-H460 lung) | TGI (UACC-257 melanoma) | TGI (HS 578T breast) | TGI (A549 NSCLC) | TGI (NCI/ADR-RES ovarian) | TGI (SF-268 CNS) | TGI (HOP-92 NSCLC) | TGI (DMS 273 small cell lung)
COCN1C(=N)C(C(=O)OC(C)(C)C)=C2C=C(O)C=CC21C (stereo unspecified) | 19.9 µM | 9.93 µM | 29.1 µM | 26.5 µM | 37.9 µM | 28.2 µM | > 100 µM | 30.2 µM | > 100 µM | 20.7 µM | 26.2 µM | 55.7 µM | 44.9 µM | 22.5 µM | 82.9 µM | 34.9 µM | 69 µM | 29.5 µM | 17.4 µM | 
O=[N+]([O-])c1cccc(C2=NN(c3ccccc3)C3c4ccccc4OCC23)c1 (stereo unspecified) | > 100 µM |  |  | > 100 µM | > 100 µM | > 100 µM |  | > 100 µM | > 100 µM | > 100 µM | > 100 µM | > 100 µM | > 100 µM | > 100 µM |  | > 100 µM |  | > 100 µM | > 100 µM | > 100 µM
Cc1cccc2c(NCCN(C)C)c3cccc(C(=O)NCCN(C)C)c3nc12 | 4.16 µM | 19.7 µM | 0.311 µM | 1.76 µM | 4.29 µM | 6.64 µM | 0.319 µM | 1.3 µM | 0.102 µM | 4.87 µM | 8.94 µM | 10.2 µM | 4.08 µM | 2.47 µM | 1.82 µM | 29.2 µM | 11.6 µM | 2.85 µM | 1.46 µM | 
CCc1ccc(Cc2ccc(CC)c(NC(=O)C(=O)C3NC(=S)NC3=O)c2CC)c(CC)c1NC(=O)C(=O)C1NC(=S)NC1=O (stereo unspecified) |  |  | > 100 µM | > 100 µM | > 100 µM | > 100 µM |  | > 100 µM | > 100 µM | > 100 µM | > 100 µM | > 100 µM | > 100 µM | > 100 µM |  | > 100 µM |  | > 100 µM | > 100 µM | > 100 µM
CSc1ccc2c(cc1=O)C(NC(=O)c1ccccc1)CCc1cc(O)c(O)c(O)c1-2 (stereo unspecified) | > 100 µM |  | 25.7 µM | 30 µM | > 100 µM | 66.1 µM |  | 24.7 µM | 54.2 µM | 36.4 µM | > 100 µM | > 100 µM | 40.3 µM | > 100 µM |  | > 100 µM |  | > 100 µM | 38.5 µM | > 100 µM
COc1ccc(C(=O)c2nc3ccccc3nc2N2CCN(c3ccccc3)CC2)cc1OC | > 100 µM | > 100 µM | > 100 µM | > 100 µM | > 100 µM | > 100 µM | > 100 µM | > 100 µM | > 100 µM | > 100 µM | > 100 µM | > 100 µM | > 100 µM | > 100 µM | > 100 µM | > 100 µM | > 100 µM | > 100 µM | > 100 µM | 
Cc1cccc(N=Cc2ccc(N(CCC#N)S(=O)(=O)c3ccccc3)cc2C)c1 | > 100 µM |  | > 100 µM | > 100 µM | > 100 µM | > 100 µM |  | > 100 µM | > 100 µM | > 100 µM | > 100 µM | > 100 µM |  | > 100 µM |  | > 100 µM |  | > 100 µM | > 100 µM | > 100 µM
O=C(O)c1ccccc1/C=C1/Cc2ccc3c(c2C1=O)CCC3 | > 100 µM | > 100 µM | > 100 µM | 39.5 µM | > 100 µM | > 100 µM | 91.3 µM | 96 µM | > 100 µM | > 100 µM | > 100 µM | > 100 µM | > 100 µM | > 100 µM | > 100 µM | > 100 µM | > 100 µM | > 100 µM | 80.8 µM | 
CO/N=C(/C(=O)Nc1c[n+](CC(=O)[O-])cs1)c1csc(N)n1 | > 100 µM |  | > 100 µM | > 100 µM | > 100 µM | > 100 µM |  | > 100 µM | > 100 µM | > 100 µM | > 100 µM | > 100 µM | > 100 µM | > 100 µM |  | > 100 µM |  | > 100 µM | > 100 µM | > 100 µM
O=C1/C(=C/c2ccccc2)CCc2ccc([N+](=O)[O-])cc21 | > 100 µM | > 100 µM | > 100 µM | > 100 µM | > 100 µM | > 100 µM | > 63.3 µM | > 100 µM | > 100 µM | > 100 µM | > 100 µM | > 100 µM | > 100 µM | > 100 µM | > 100 µM | > 100 µM | > 100 µM | > 100 µM | > 100 µM | 
CC(C)(C)OC(=O)N1CC(C)(C)N2C(=O)C3(CCCO3)C12 (stereo unspecified) | > 100 µM |  | > 100 µM | > 100 µM | > 100 µM | > 100 µM |  | > 100 µM | > 100 µM | > 100 µM | > 100 µM | > 100 µM | > 100 µM | > 100 µM |  | > 100 µM |  | > 100 µM | > 100 µM | > 100 µM
COc1ccccc1/C=N/Nc1nnc2c3ccccc3c3ncccc3c2n1 | > 100 µM | > 100 µM | > 100 µM | > 100 µM | > 100 µM | > 100 µM | > 100 µM | > 100 µM | > 100 µM | > 100 µM | > 100 µM | > 100 µM | > 100 µM | > 100 µM | > 100 µM | > 100 µM | > 100 µM | > 100 µM | 52.8 µM | 
Cc1nc(C)c(N2CCN(S(N)(=O)=O)CC2)c(=O)[nH]1 | > 100 µM | > 100 µM | > 100 µM | > 100 µM | > 100 µM | > 100 µM | > 100 µM | > 100 µM | > 100 µM | > 100 µM | > 100 µM | > 100 µM | > 100 µM | > 100 µM | > 100 µM | > 100 µM | > 100 µM | > 100 µM | > 100 µM | 
